The source of these data is patent US11578068B2, “Oxadiazole derivatives as Rho-Kinase Inhibitors” (Chiesi Farmaceutici S.p.A., priority 2017, dated 2023).

One assay addresses ROCK2 (Homo sapiens, UniProt O75116). Nature of the assay: In vitro Rho kinase inhibitory activity assay (ADP-Glo), Rho kinase 2. It is filed as biochemical. Particulars: Ki by Cheng-Prusoff from IC50; 10 μM ATP, 25° C., Myelin Basic Protein substrate; range of activity. How it is done: (§1) The effectiveness of compounds of the invention to inhibit Rho kinase activity can be determined in a 10 μl assay containing 40 mM Tris pH7.5, 20 mM MgCl2 0.1 mg/ml BSA, 50 μM DTT and 2.5 μM peptide substrate (Myelin Basic Protein) using an ADP-Glo kit (Promega). Compounds were dissolved in DMSO such that the final concentration of DMSO was 1% in the assay. All reactions/incubations are performed at 25° C. Compound (2 ul) and either Rho kinase 1 or 2 (4 μl) were mixed and incubated for 30 mins. Reactions were initiated by addition of ATP (4 μl) such that the final concentration of ATP in the assay was 10 μM. After a 1 hour incubation 10 μl of ADP-Glo Reagent was added and after a further 45 minute incubation 20 ul of Kinase Detection Buffer was added and the mixture incubated for a further 30 minutes. The luminescent signal was measured on a luminometer. […] Compounds were tested in dose-response format and the inhibition of kinase activity was calculated at each concentration of compound. To determine the IC50 (concentration of compound required to inhibit 50% of the enzyme activity) data were fit to a plot of % inhibition vs Log 10 compound concentration using a sigmoidal fit with a variable slope and fixing the maximum to 100% and the minimum to 0%. To determine the Ki values the Cheng-Prusoff equation was utilized (Ki=IC50/(1+[S]/Km)

A further assay has as its target ROCK1 (Homo sapiens, UniProt Q13464). The experiment in a line: In vitro Rho kinase inhibitory activity assay (ADP-Glo), Rho kinase 1. It is filed as biochemical. Particulars: Ki by Cheng-Prusoff from IC50; 10 μM ATP, 25° C., Myelin Basic Protein substrate; range of activity. How it is done:
as §1

Structures are written as SMILES.

Chain of ROCK1 (Q13464 whole entry): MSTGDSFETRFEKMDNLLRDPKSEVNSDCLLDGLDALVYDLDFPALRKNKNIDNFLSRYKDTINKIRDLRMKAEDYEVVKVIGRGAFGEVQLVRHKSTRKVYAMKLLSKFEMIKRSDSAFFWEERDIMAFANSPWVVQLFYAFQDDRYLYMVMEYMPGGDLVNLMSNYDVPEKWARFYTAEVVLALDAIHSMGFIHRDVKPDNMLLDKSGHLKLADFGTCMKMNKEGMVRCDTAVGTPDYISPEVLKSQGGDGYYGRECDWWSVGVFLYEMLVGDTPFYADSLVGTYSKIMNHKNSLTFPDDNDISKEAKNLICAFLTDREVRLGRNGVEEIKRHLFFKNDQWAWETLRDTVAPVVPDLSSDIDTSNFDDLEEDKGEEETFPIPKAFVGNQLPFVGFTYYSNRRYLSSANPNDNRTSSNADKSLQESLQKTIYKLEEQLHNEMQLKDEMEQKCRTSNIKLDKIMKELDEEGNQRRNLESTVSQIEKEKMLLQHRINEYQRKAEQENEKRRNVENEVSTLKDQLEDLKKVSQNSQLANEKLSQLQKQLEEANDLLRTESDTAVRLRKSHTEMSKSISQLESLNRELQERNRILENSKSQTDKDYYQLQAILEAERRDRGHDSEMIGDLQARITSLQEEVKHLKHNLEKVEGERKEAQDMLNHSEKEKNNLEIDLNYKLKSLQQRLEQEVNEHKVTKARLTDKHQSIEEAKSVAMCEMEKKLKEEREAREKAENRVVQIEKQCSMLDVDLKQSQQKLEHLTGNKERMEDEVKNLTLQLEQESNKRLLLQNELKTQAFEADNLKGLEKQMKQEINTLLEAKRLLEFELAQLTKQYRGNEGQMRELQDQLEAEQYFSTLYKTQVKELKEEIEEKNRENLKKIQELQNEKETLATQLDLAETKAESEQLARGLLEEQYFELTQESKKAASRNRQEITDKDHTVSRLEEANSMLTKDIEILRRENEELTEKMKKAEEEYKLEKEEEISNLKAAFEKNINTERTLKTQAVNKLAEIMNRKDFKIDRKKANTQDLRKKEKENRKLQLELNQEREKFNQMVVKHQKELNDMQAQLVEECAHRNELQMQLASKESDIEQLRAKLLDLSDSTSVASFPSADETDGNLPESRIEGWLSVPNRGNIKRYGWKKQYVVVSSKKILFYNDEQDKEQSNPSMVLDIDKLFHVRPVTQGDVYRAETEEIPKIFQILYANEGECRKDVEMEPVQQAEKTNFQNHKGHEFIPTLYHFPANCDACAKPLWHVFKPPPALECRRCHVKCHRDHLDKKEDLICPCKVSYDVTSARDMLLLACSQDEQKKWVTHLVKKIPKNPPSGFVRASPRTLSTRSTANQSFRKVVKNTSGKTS
Chain of ROCK2 (O75116 whole entry): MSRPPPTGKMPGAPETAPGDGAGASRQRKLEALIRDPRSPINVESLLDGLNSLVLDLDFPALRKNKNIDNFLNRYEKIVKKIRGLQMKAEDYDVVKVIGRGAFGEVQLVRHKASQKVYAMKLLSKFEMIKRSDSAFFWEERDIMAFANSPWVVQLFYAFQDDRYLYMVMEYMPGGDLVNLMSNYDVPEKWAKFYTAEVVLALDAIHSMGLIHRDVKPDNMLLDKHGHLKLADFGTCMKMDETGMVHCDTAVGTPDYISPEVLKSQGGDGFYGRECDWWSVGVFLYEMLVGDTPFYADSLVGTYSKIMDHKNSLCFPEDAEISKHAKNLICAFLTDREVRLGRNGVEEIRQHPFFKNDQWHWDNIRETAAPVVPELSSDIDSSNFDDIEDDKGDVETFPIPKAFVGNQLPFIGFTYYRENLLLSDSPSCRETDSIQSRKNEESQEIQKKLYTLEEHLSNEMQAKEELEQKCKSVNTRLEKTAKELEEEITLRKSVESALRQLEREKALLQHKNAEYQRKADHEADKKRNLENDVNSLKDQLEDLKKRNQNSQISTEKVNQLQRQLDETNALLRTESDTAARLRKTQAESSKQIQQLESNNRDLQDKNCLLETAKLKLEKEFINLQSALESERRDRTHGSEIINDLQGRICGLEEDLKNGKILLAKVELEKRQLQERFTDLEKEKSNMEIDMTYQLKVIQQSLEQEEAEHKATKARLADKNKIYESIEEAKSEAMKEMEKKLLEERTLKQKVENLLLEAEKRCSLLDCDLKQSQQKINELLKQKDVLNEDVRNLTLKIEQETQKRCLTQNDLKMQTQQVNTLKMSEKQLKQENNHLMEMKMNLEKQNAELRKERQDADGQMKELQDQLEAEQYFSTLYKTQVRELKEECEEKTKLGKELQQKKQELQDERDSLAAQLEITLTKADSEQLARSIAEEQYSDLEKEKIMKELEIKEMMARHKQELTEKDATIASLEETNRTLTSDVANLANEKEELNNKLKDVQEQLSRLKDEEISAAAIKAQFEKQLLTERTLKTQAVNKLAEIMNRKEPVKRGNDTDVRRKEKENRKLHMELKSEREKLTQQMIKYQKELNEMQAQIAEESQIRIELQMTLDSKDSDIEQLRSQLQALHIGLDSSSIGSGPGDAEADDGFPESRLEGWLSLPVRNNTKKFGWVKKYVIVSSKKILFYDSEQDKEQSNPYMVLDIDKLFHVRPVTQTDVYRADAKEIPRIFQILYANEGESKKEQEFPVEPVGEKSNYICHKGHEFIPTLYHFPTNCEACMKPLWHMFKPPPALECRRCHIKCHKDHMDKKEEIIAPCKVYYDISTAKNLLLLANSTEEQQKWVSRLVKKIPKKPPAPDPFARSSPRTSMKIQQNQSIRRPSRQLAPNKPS

The term Ki denotes the equilibrium dissociation constant of an inhibitor or competing ligand from its target. Read a low Ki as tighter binding. Consider `Cc1c[nH]c2nccc(Oc3ccc(C[C@H](N)c4nc(-c5ccccc5)no4)cc3F)c12` [Example 1, (S)-2-(3-fluoro-4((3-methyl-1H-pyrrolo[2,3-b]pyridin-4-yl)oxy)phenyl)-1-(3-phenyl-1,2,4-oxadiazol-5-yl)ethanamine], for which the Ki at ROCK2 and at ROCK1 was 5 to 50 nM in each case.
With `COCCc1noc([C@@H](N)Cc2ccc(Oc3ccnc4[nH]cc(C)c34)c(F)c2)n1` [Example 2, (S)-2-(3-fluoro-4-((3-methyl-1H-pyrrolo[2,3-b]pyridin-4-yl)oxy)phenyl)-1-(3-(2-methoxyethyl)-1,2,4-oxadiazol-5-yl)ethanamine], the Ki at ROCK2 and at ROCK1 was 5 to 50 nM throughout.
As to `Cc1noc([C@@H](N)Cc2ccc(Oc3ccnc4[nH]cc(C)c34)c(F)c2)n1` [Example 3, (S)-2-(3-fluoro-4-((3-methyl-1H-pyrrolo[2,3-b]pyridin-4-yl)oxy)phenyl)-1-(3-methyl-1,2,4-oxadiazol-5-yl)ethanamine], the Ki at ROCK2 and on ROCK1 was 5 to 50 nM each time.
As for `Cc1c[nH]c2nccc(Oc3ccc(C[C@H](N)c4nc(CCc5ccccc5)no4)cc3F)c12` [Example 4, (S)-2-(3-fluoro-4-((3-methyl-1H-pyrrolo[2,3-b]pyridin-4-yl)oxy)phenyl)-1-(3-phenethyl-1,2,4-oxadiazol-5-yl)ethanamine], the Ki on ROCK2 and on ROCK1 was less than 5 nM each time.
On to `Cc1c[nH]c2nccc(Oc3ccc(C[C@H](N)c4nc(-c5cccnc5)no4)cc3F)c12` [Example 5, (S)-2-(3-fluoro-4-((3-methyl-1H-pyrrolo[2,3-b]pyridin-4-yl)oxy)phenyl)-1-(3-(pyridin-3-yl)-1,2,4-oxadiazol-5-yl)ethanamine], for which the Ki at ROCK2 and on ROCK1 was 5 to 50 nM throughout.
On to `Cc1c[nH]c2nccc(Oc3ccc(C[C@H](N)c4nc(CCCN(C)C)no4)cc3F)c12` [Example 6, (S)-3-(5-(1-amino-2-(3-fluoro-4-((3-methyl-1H-pyrrolo[2,3-b]pyridin-4-yl)oxy)phenyl)ethyl)-1,2,4-oxadiazol-3-yl)-N,N-dimethylpropan-1-amine], for which the Ki at ROCK2 and at ROCK1 was 5 to 50 nM in each case.
`N[C@@H](Cc1ccc(Oc2ccnc3[nH]ccc23)cc1)c1nc(-c2ccccc2)no1` [Example 7, (S)-2-(4-((1H-pyrrolo[2,3-b]pyridin-4-yl)oxy)phenyl)-1-(3-phenyl-1,2,4-oxadiazol-5-yl)ethanamine]: the Ki at ROCK2 and at ROCK1 was greater than 50 nM each time.
Take `Cc1c[nH]c2nccc(Oc3ccc(CC(CN)c4nc(CCc5ccccc5)no4)cc3F)c12` (stereo not drawn) [Example 8, 3-(3-fluoro-4-((3-methyl-1H-pyrrolo[2,3-b]pyridin-4-yl)oxy)phenyl)-2-(3-phenethyl-1,2,4-oxadiazol-5-yl)propan-1-amine]: the Ki on ROCK2 and at ROCK1 was less than 5 nM throughout.
As to `Cc1c[nH]c2nccc(Oc3ccc(C[C@H](N)c4nnc(Cc5ccccc5)o4)cc3F)c12` [Example 9, (S)-1-(5-benzyl-1,3,4-oxadiazol-2-yl)-2-(3-fluoro-4-((3-methyl-1H-pyrrolo [2,3-b]pyridin-4-yl)oxy)phenyl)ethanamine], the Ki at ROCK2 and at ROCK1 was less than 5 nM each time.
